How the values were obtained:
phosphodiesterase (PDE) = assay: PDE inhibition; type: biochemical; details: 10,000×g supernatant of human blood platelets, 1 μmol/liter 3H-cAMP, pH 7.4, 15 minutes at 37° C.
Procedure: cAMP is hydrolysed to AMP by phosphodiesterase (PDE) from various sources, including blood platelets. This hydrolysis is inhibited by PDE inhibitors according to the concentration.
The phosphodiesterase used is the 10,000×g supernatant of human blood platelets which have been frozen with water and thawed out again. An amount of 0.3 ml of a mixture which contains 0.1 mol/liter of tri-hydroxy-aminomethane (pH 7.4), 3 mmol/liter of magnesium chloride, 1 mmol/liter of AMP, 1 μmol/liter of ^3 H-cAMP (specific activity about 10 MBq/μmol), PDE as well as the substance to be tested, and water for the control is incubated for 15 minutes at 37° C. The incubation is stopped by the addition of 0.5 ml of zinc sulphate (0.266 mol/liter) and 0.5 ml of barium hydroxide (0.226 mol/liter), the precipitate is centrifuged, and the activity remaining in the supernatant of the unreacted ^3 H-cAMP is determined. From a comparison of the substance preparations and the control preparations, the concentration for a 50% inhibiting activity (IC50) of the respective substance was calculated.

mice = assay: Acute toxicity; type: in vivo; details: observation time 14 days
Procedure: The acute toxicity of the substances to be tested was determined in groups of 5 mice each each after peroral administration of a dose of 250 mg/kg or 1000 mg/kg (observation time: 14 days).

conscious mice = assay: Determination of the prolongation of bleeding time; type: in vivo; details: Mus musculus, po, 1 h, 10 mg/kg orally, after one hour, versus control group
Procedure: To measure the bleeding time, 10 mg/kg of the test compound is administered orally to conscious mice. After one hour 0.5 mm of the tip of the tail of the mouse is cut off, and the droplets of blood are gently removed with filter paper every 30 seconds. The number of drops of blood give a measure of the bleeding time (5 animals/experiment). The values in the following table represent the prolongation as a percentage as compared to a control group: […]

Structure (SMILES)	IC50 (phosphodiesterase (PDE))	Acute toxicity per os (animals died) (mice; 250 mg/kg peroral)	change in vivo at 10 mg/kg (conscious mice)	Acute toxicity per os (animals died) (mice; 1000 mg/kg peroral)
CC1(C)C(=O)Nc2ccc(OCCCC[S+]([O-])c3ccccc3)cc21 (stereo not drawn) [A, 3,3-Dimethyl-5-(4-phenylsulfinyl-butoxy)-indolinone-2]	2500 nM	0 out of 5	–	–
CC1(C)C(=O)Nc2ccc(OCCCC[S+]([O-])c3ccc(Cl)c(Cl)c3)cc21 (stereo not drawn) [B, 3,3-Dimethyl-5-[4-(3,4-dichlorophenylsulfinyl)-butoxy]-indolinone-2]	300 nM	–	59%	0 out of 6
CC1(C)C(=O)Nc2ccc(OCCCCSc3ccc(C4CCCCC4)cc3)cc21 [C, 3,3-Dimethyl-5-[4-(4-cyclohexylphenylmercapto)-butoxy]-indolinone-2]	2500 nM	–	–	0 out of 6
CC1(C)C(=O)Nc2ccc(OCCCC[S+]([O-])c3ccc(-c4ccccc4F)cc3)cc21 (stereo not drawn) [D, 3,3-Dimethyl-5-[4-(2'-fluoro-4-biphenylylsulfinyl)-butoxy]-indolinone-2]	27 nM	–	> 249%	0 out of 6
COc1ccc([S+]([O-])CCCCOc2ccc3c(c2)C(C)(C)C(=O)N3)cc1OC (stereo not drawn) [E, 3,3-Dimethyl-5-[4-(3,4-dimethoxyphenylsulfinyl)-butoxy]-indolinone-2]	540 nM	–	> 198%	0 out of 6
COc1cc2ccc(S(=O)(=O)CCCCOc3ccc4c(c3)C(C)(C)C(=O)N4)cc2cc1OC [F, 3,3-Dimethyl-5-[4-(6,7-dimethoxy-naphthyl-(2)-sulfonyl)butoxy]-indolinone-2]	240 nM	–	> 232%	0 out of 6
CC(C)(C)c1cc([S+]([O-])CCCCOc2ccc3c(c2)C(C)(C)C(=O)N3)cc(C(C)(C)C)c1O (stereo not drawn) [G, 3,3-Dimethyl-5-[4-(3,5-di-tert.butyl-4-hydroxy-phenylsulfinyl)-butoxy]-indolinone-2]	70 nM	–	154%	0 out of 6
CC(C)(C)c1cc(S(=O)(=O)CCCCOc2ccc3c(c2)C(C)(C)C(=O)N3)cc(C(C)(C)C)c1O [H, 3,3-Dimethyl-5-[4-(3,5-di-tert.butyl-4-hydroxy-phenylsulfonyl)-butoxy]-indolinone-2]	59 nM	–	149%	0 out of 6
COc1ccc([S+]([O-])CCCCOc2ccc3c(c2)C(C)(C)C(=O)N3)cc1 (stereo not drawn) [I, 3,3-Dimethyl-5-[4-(4-methoxyphenyl-sulfinyl)-butoxy]-indolinone-2]	500 nM	–	> 214%	0 out of 6
CC(C)(C)c1ccc([S+]([O-])CCCCOc2ccc3c(c2)C(C)(C)C(=O)N3)cc1 (stereo not drawn) [K, 3,3-Dimethyl-5-[4-(4-tert.butyl-phenyl-sulfinyl)-butoxy]-indolinone-2]	270 nM	–	> 285%	0 out of 6
COc1cc2ccc([S+]([O-])CCCCOc3ccc4c(c3)C(C)(C)C(=O)N4)cc2cc1OC (stereo not drawn) [L, 3,3-Dimethyl-5-[4-(6,7-dimethoxy-naphthyl-(2)-sulfinyl)butoxy]-indolinone-2]	240 nM	–	102%	0 out of 6
CC1(C)C(=O)Nc2ccc(OCCCCSc3cc(Cl)c(O)c(Cl)c3)cc21 [M, 3,3-Dimethyl-5-[4-(3,5-dichloro-4-hydroxy-phenyl-mercapto)-butoxy]-indolinone-2]	–	–	140%	0 out of 6
CC1(C)C(=O)Nc2ccc(OCCCC[S+]([O-])c3cc(Br)c(N)c(Br)c3)cc21 (stereo not drawn) [N, 3,3-Dimethyl-5-[4-(3,5-dibromo-4-amino-phenyl-sulfinyl)butoxy]-indolinone-2]	110 nM	–	> 254%	0 out of 6
CC1(C)C(=O)Nc2ccc(OCCCC[S+]([O-])c3ccc4ccccc4c3)cc21 (stereo not drawn) [O, 3,3-Dimethyl-5-[4-(naphthyl-(2)-sulfinyl)-butoxy]-indolinone-2]	110 nM	–	127%	0 out of 6
CC1(C)C(=O)Nc2ccc(OCCCC[S+]([O-])c3ccc(Cl)cc3)cc21 (stereo not drawn) [P, 3,3-Dimethyl-5-[4-(4-chlorophenylsulfinyl)-butoxy]-indolinone-2]	360 nM	–	114%	0 out of 6
CC1(C)C(=O)Nc2ccc(OCCCCC[S+]([O-])c3ccc(C4CCCCC4)cc3)cc21 (stereo not drawn) [Q, 3,3-Dimethyl-5-[5-(4-cyclohexyl-phenyl-sulfinyl)-pentoxy]-indolinone-2]	380 nM	–	> 174%	0 out of 6
CC(C)(C)c1ccc(S(=O)(=O)CCCCOc2ccc3c(c2)C(C)(C)C(=O)N3)cc1 [R, 3,3-Dimethyl-5-[4-(4-tert.butyl-phenyl-sulfonyl)-butoxy]-indolinone-2]	240 nM	–	> 242%	0 out of 6
CC1(C)C(=O)Nc2ccc(OCCCC[S+]([O-])c3ccc(C4CCCCC4)cc3)cc21 (stereo not drawn) [S, 3,3-Dimethyl-5-[4-(4-cyclohexyl-phenyl-sulfinyl)-butoxy]-indolinone-2]	58 nM	–	104%	0 out of 6

From patent US4629733A, “Indolinones and pharmaceutical compositions containing same” (Dr. Karl Thomae GmbH, priority 1980, dated 1986)
